US8058437B2, “(Pyrroloquinoxalinyl) pyrazinecarbohydrazide-oxalic acid co-crystal for treatment of cancer and other diseases” (Novelix Pharmaceuticals, Inc., priority 2008, dated 2011)

How the values were obtained:
[1] = system: human cancer cell lines (NCI60); assay: Treatment of human cancer cell lines with NVX-412 (NCI screening procedure, SRB staining); type: cell-based
Experimental: Treatment of various cancer cell lines with NVX-412. Over 60 human cancer cell lines were treated with NVX-412 according to procedures detailed by the National Cancer Institute Developmental Therapeutics Program (see dtp.nci.nih.gov/branches/btb/ivclsp.html) and Shoemaker R H (Nat. Rev. Cancer, 6, 813-823, (2006)) and references cited therein. Many of the cell lines tested are available from the American Type Culture Collection (Rockville, Md., USA). The melanoma cell line 518A2 has been described previously (Jansen et al., “Activated N-Ras Contributes to the Chemoresistance of Human Melanoma in Severe Combined Immunodeficiency (SCID) Mice by Blocking Apoptosis,” Cancer Research 57, 362-65 (1997)). A typical screening of cancer cell treatment by NVX-412 employed the following procedure.
The human tumor cell lines of the cancer screening panel were grown in RPMI 1640 medium containing 5% fetal bovine serum and 2 mM L-glutamine. For a typical screening experiment, cells were inoculated into 96 well microtiter plates in 100 μL at plating densities ranging from 5,000 to 40,000 cells/well depending on the doubling time of individual cell lines. After cell inoculation, the microtiter plates were incubated at 37° C. in 5% CO2/95% air at 100% relative humidity for 24 hours prior to the addition of NVX-412. […]
Following the addition of NVX-412, the plates were incubated for an additional 48 hours at 37° C. in 5% CO2/95% air at 100% relative humidity. […] Bound stain was subsequently solubilized with 10 mM trizma base, and the absorbance was read on an automated plate reader at a wavelength of 515 nm. […] Using the seven absorbance measurements [time zero (Tz), control growth (C), and test growth in the presence of NVX-412 at the five concentration levels (Ti)], the percentage growth was calculated at each of the NVX-412 concentration levels. Percentage growth inhibition was calculated as: [(Ti−Tz)/(C−Tz)]*100 for concentrations for which Ti≧Tz [(Ti−Tz)/Tz]*100 for concentrations for which Ti<Tz.
Three dose response parameters were calculated. […]

[2] = system: TC32luc Ewing tumor cell line; assay: Ewing's sarcoma cell viability by luminescence, TC32luc; type: cell-based, human; settings: 72 hours
Experimental: (§1) Treatment of Ewing's sarcoma with NVX-412. The TC71luc and TC32luc Ewing tumor cell lines stably express the luciferase gene. Cells were seeded into 96-well plates 24 hours before treating with the active compound to allow attachment. Cells were treated with NVX-412 for 72 hours. Serial dilutions of NVX-412 were prepared in medium from a 10 μM stock solution in DMSO. […] After 72 hours, cell viability was measured by luminescence using a Saphire2 plate reader.

[3] = system: TC71luc Ewing tumor cell line; assay: Ewing's sarcoma cell viability by luminescence, TC71luc; type: cell-based, human; settings: 72 hours
Experimental: as §1

O=C(NNc1nc2cc(F)ccc2n2cccc12)c1cnccn1.O=C(O)C(=O)O [NVX-412, N′-(7-fluoropyrrolo[1,2a]quinoxalin-4-yl)pyrazine-2-carbohydrazide oxalic acid co-crystal]
GI50 ([1]; almost all cell lines tested, 48 hours incubation): nanomolar range | inhibition of tumor cell growth ([1]; cancer cell lines tested, summary): pronounced inhibition of tumor cell growth | effectiveness against cancer cell lines ([1]; sarcoma, melanoma, and CNS cancer cell lines, summary): very effective | fraction of cells remaining after three days, mean ([2]; TC32, NVX-412 5 nM): 1.03 | fraction of cells remaining after three days, mean ([2]; TC32, NVX-412 10 nM): 0.96 | fraction of cells remaining after three days, mean ([2]; TC32, NVX-412 25 nM): 0.95 | fraction of cells remaining after three days, mean ([2]; TC32, NVX-412 50 nM): 0.91 | fraction of cells remaining after three days, mean ([2]; TC32, NVX-412 75 nM): 0.69 | fraction of cells remaining after three days, mean ([2]; TC32, NVX-412 100 nM): 0.44 | fraction of cells remaining after three days, mean ([2]; TC32, NVX-412 150 nM): 0.15 | fraction of cells remaining after three days, mean ([2]; TC32, NVX-412 200 nM): 0.06 | fraction of cells remaining after three days, mean ([2]; TC32, NVX-412 375 nM): 0.01 | fraction of cells remaining after three days, mean ([3]; TC71, NVX-412 5 nM): 1.00 | fraction of cells remaining after three days, mean ([3]; TC71, NVX-412 10 nM): 0.97 | fraction of cells remaining after three days, mean ([3]; TC71, NVX-412 25 nM): 0.95 | fraction of cells remaining after three days, mean ([3]; TC71, NVX-412 50 nM): 0.92 | fraction of cells remaining after three days, mean ([3]; TC71, NVX-412 75 nM): 0.76 | fraction of cells remaining after three days, mean ([3]; TC71, NVX-412 100 nM): 0.50 | fraction of cells remaining after three days, mean ([3]; TC71, NVX-412 150 nM): 0.21 | fraction of cells remaining after three days, mean ([3]; TC71, NVX-412 200 nM): 0.08 | fraction of cells remaining after three days, mean ([3]; TC71, NVX-412 375 nM): 0.01
